Assay results from patent US11857519B2, “Compounds and methods for the targeted degradation of enhancer of zeste homolog 2 polypeptide” (Arvinas Operations, Inc., priority 2016, dated 2024).

target: T1, EZH2 (Homo sapiens, UniProt Q15910); assay: Cellular assay of target protein degradation (VCaP cells, ELISA); assay type: cell-based; settings: 4 hours, protein degradation range at indicated concentration (relative to DMSO control)
T1 construct: Protocol of the Cellular Assay of Target Protein Degradation (VCaP Cells, ELISA); endogenous in cells; host or cells: VCaP cells
How it was run: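 VCaP cells grown ≥3 days in RPMI with 5% CSS, then dosed with compounds in 0.1% DMSO for 4 h. Lysates analysed by sandwich ELISA for EZH2 with TMB readout at 450 nm, 562 nm used for background subtraction.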

T1 sequence (Q15910 whole entry): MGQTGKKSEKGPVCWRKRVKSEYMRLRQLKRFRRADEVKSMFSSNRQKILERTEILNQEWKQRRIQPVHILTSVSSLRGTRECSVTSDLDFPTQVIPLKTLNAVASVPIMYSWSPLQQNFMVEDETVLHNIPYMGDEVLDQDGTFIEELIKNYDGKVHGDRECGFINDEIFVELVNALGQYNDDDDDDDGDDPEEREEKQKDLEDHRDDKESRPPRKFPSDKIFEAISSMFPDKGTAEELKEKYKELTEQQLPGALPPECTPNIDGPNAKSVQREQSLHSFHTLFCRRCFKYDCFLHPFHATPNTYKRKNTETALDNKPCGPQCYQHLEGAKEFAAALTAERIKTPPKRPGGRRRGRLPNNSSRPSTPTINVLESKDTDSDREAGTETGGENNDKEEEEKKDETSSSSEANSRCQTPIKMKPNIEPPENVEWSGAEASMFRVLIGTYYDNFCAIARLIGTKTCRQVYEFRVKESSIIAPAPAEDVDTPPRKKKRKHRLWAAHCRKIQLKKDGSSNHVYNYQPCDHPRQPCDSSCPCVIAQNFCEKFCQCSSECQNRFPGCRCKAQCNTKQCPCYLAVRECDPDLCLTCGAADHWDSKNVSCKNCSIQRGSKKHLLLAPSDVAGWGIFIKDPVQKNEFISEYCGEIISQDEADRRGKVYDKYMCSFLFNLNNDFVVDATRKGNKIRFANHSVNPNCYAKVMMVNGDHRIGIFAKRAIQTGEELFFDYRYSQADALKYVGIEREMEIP
T1 sequence (O75530 whole entry partner): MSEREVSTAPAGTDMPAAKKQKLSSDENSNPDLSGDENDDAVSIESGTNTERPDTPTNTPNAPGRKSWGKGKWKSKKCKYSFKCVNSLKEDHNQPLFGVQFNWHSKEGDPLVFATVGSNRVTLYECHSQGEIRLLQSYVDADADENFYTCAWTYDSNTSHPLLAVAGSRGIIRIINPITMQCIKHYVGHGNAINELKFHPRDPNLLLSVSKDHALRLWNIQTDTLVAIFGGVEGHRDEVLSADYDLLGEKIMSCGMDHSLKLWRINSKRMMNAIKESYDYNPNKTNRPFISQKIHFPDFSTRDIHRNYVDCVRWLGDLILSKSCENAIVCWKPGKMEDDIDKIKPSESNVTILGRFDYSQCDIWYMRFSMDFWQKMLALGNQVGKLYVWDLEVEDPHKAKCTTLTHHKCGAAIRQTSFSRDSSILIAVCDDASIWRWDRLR
T1 sequence (Q15022 whole entry partner): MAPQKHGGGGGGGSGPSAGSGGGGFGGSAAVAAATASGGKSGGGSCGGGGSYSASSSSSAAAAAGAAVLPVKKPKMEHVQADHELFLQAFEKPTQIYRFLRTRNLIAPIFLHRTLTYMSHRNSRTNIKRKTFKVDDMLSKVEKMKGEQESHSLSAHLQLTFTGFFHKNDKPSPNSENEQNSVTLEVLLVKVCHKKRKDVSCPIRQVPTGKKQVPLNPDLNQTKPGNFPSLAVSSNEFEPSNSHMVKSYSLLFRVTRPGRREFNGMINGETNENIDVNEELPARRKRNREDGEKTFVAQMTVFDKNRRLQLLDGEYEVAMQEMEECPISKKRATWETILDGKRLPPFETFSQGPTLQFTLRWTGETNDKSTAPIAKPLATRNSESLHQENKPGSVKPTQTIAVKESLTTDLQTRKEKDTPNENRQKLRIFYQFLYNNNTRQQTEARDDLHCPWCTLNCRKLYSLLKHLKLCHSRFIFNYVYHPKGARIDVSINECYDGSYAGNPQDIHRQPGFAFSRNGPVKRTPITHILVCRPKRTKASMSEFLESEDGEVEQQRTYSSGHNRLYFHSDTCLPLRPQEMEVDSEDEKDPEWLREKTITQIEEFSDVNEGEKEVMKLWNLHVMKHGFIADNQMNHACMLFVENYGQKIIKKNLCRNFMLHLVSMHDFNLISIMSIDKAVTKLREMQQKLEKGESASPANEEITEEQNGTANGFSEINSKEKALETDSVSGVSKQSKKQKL

| percent target protein degradation class | Structure (SMILES) |
| --- | --- |
| A (A = degradation more than 60%) | CCN(c1cc(-c2ccc(OCCOCCOc3cc(C(C(=O)N4C[C@H](O)C[C@H]4C(=O)N[C@@H](C)c4ccc(-c5scnc5C)cc4)C(C)C)on3)cc2)cc(C(=O)NCc2c(C)cc(C)[nH]c2=O)c1C)C1CCOCC1 (some centres unmarked) [Compound 105] |
| B (B = degradation between 30% and 60%) | CCN(c1cc(-c2ccc(OCCOCc3ccc4c(c3)C(=O)N([C@H](C(=O)N3C[C@H](O)C[C@H]3C(=O)N[C@@H](C)c3ccc(-c5scnc5C)cc3)C(C)C)C4)cc2)cc(C(=O)NCc2c(C)cc(C)[nH]c2=O)c1C)C1CCOCC1 [Compound 108, (2S,4R)-1-((S)-2-(6-((2-((3′-(((4,6-dimethyl-2-oxo-1,2-dihydropyridin-3-yl)methyl)carbamoyl)-5′-(ethyl(tetrahydro-2H-pyran-4-yl)amino)-4′-methyl-[1,1′-biphenyl]-4-yl)oxy)ethoxy)methyl)-1-oxoisoindolin-2-yl)-3-methylbutanoyl)-4-hydroxy-N-((S)-1-(4-(4-methylthiazol-5-yl)phenyl)ethyl)pyrrolidine-2-carboxamide] |
| A (A = degradation more than 60%) | CCN(c1cc(-c2ccc(CCOCCOc3cc(C(C(=O)N4C[C@H](O)C[C@H]4C(=O)N[C@@H](C)c4ccc(-c5scnc5C)cc4)C(C)C)on3)cc2)cc(C(=O)NCc2c(C)cc(C)[nH]c2=O)c1C)C1CCOCC1 (stereo partly drawn) [Compound 110, (2S,4R)-1-(2-(3-(2-(2-(3′-(((4,6-dimethyl-2-oxo-1,2-dihydropyridin-3-yl)methyl)carbamoyl)-5′-(ethyl(tetrahydro-2H-pyran-4-yl)amino)-4′-methyl-[1,1′-biphenyl]-4-yl)ethoxy)ethoxy)isoxazol-5-yl)-3-methylbutanoyl)-4-hydroxy-N-((S)-1-(4-(4-methylthiazol-5-yl)phenyl)ethyl)pyrrolidine-2-carboxamide] |
| A (A = degradation more than 60%) | CCN(c1cc(-c2ccc(CCCOCCOc3cc(C(C(=O)N4C[C@H](O)C[C@H]4C(=O)N[C@@H](C)c4ccc(-c5scnc5C)cc4)C(C)C)on3)cc2)cc(C(=O)NCc2c(C)cc(C)[nH]c2=O)c1C)C1CCOCC1 (stereo partly drawn) [Compound 111, (2S,4R)-1-(2-(3-(2-(3-(3′-(((4,6-dimethyl-2-oxo-1,2-dihydropyridin-3-yl)methyl)carbamoyl)-5′-(ethyl(tetrahydro-2H-pyran-4-yl)amino)-4′-methyl-[1,1′-biphenyl]-4-yl)propoxy)ethoxy)isoxazol-5-yl)-3-methylbutanoyl)-4-hydroxy-N-((S)-1-(4-(4-methylthiazol-5-yl)phenyl)ethyl)pyrrolidine-2-carboxamide] |
| B (B = degradation between 30% and 60%) | CCN(c1cc(-c2ccc(CN3CCN(CC4CCN(c5ccc6c(c5)C(=O)N(C5CCC(=O)NC5=O)C6=O)CC4)CC3)cc2)cc(C(=O)NCc2c(C)cc(C)[nH]c2=O)c1C)C1CCOCC1 (centres unmarked) [Compound 113, N-((4,6-dimethyl-2-oxo-1,2-dihydropyridin-3-yl)methyl)-4′-((4-((1-(2-(2,6-dioxopiperidin-3-yl)-1,3-dioxoisoindolin-5-yl)piperidin-4-yl)methyl)piperazin-1-yl)methyl)-5-(ethyl(tetrahydro-2H-pyran-4-yl)amino)-4-methyl-[1,1′-biphenyl]-3-carboxamide] |
| A (A = degradation more than 60%) | CCN(c1cc(-c2ccc(CN3CCN(CCOCCOCC(=O)N[C@H](C(=O)N4C[C@H](O)C[C@H]4C(=O)N[C@@H](C)c4ccc(-c5scnc5C)cc4)C(C)(C)C)CC3)cc2)cc(C(=O)NCc2c(C)cc(C)[nH]c2=O)c1C)C1CCOCC1 [Compound 114, (2S,4R)-1-((S)-2-(2-(2-(2-(4-((3′-(((4,6-dimethyl-2-oxo-1,2-dihydropyridin-3-yl)methyl)carbamoyl)-5′-(ethyl(tetrahydro-2H-pyran-4-yl)amino)-4′-methyl-[1,1′-biphenyl]-4-yl)methyl)piperazin-1-yl)ethoxy)ethoxy)acetamido)-3,3-dimethylbutanoyl)-4-hydroxy-N-((S)-1-(4-(4-methylthiazol-5-yl)phenyl)ethyl)pyrrolidine-2-carboxamide] |
| B (B = degradation between 30% and 60%) | CCN(c1cc(-c2ccc(CN3CCC(CN4CCN(c5ccc6c(c5)C(=O)N(C5CCC(=O)NC5=O)C6=O)CC4)CC3)cc2)cc(C(=O)NCc2c(C)cc(C)[nH]c2=O)c1C)C1CCOCC1 (centres unmarked) [Compound 115, N-((4,6-dimethyl-2-oxo-1,2-dihydiopyridin-3-yl)methyl)-4′-((4-((4-(2-(2,6-dioxopiperidin-3-yl)-1,3-dioxoisoindolin-5-yl)piperazin-1-yl)methyl)piperidin-1-yl)methyl)-5-(ethyl(tetrahydro-2H-pyran-4-yl)amino)-4-methyl-[1,1′-biphenyl]-3-carboxamide] |
| A (A = degradation more than 60%) | CCN(c1cc(-c2ccc(CN3CCN(CCOCC(=O)N[C@H](C(=O)N4C[C@H](O)C[C@H]4C(=O)N[C@@H](C)c4ccc(-c5scnc5C)cc4)C(C)(C)C)CC3)cc2)cc(C(=O)NCc2c(C)cc(C)[nH]c2=O)c1C)C1CCOCC1 [Compound 116, (2S,4R)-1-((S)-2-(2-(2-(4-((3′-(((4,6-dimethyl-2-oxo-1,2-dihydropyridin-3-yl)methyl)carbamoyl)-5′-(ethyl(tetrahydro-2H-pyran-4-yl)amino)-4′-methyl-[1,1′-biphenyl]-4-yl)methyl)piperazin-1-yl)ethoxy)acetamido)-3,3-dimethylbutanoyl)-4-hydroxy-N-((S)-1-(4-(4-methylthiazol-5-yl)phenyl)ethyl)pyrrolidine-2-carboxamide] |

Continued, compound first:

| Structure (SMILES) | percent target protein degradation class |
| --- | --- |
| CCN(c1cc(-c2ccc(OCCCCOc3ccc4c(c3)C(=O)N([C@@H](C(=O)N3C[C@H](O)C[C@H]3C(=O)N[C@@H](C)c3ccc(-c5scnc5C)cc3)C(C)C)C4)cc2)cc(C(=O)NCc2c(C)cc(C)[nH]c2=O)c1C)C1CCOCC1 [Compound 101, (2S,4R)-1-((R)-2-(6-(4-((3′-(((4,6-dimethyl-2-oxo-1,2-dihydropyridin-3-yl)methyl)carbamoyl)-5′-(ethyl(tetrahydro-2H-pyran-4-yl)amino)-4′-methyl-[1,1′-biphenyl]-4-yl)oxy)butoxy)-1-oxoisoindolin-2-yl)-3-methylbutanoyl)-4-hydroxy-N-((S)-1-(4-(4-methylthiazol-5-yl)phenyl)ethyl)pyrrolidine-2-carboxamide] | B (B = degradation between 30% and 60%) |
| CCN(c1cc(-c2ccc(OCCCCOc3ccc4c(c3)C(=O)N([C@H](C(=O)N3C[C@H](O)C[C@H]3C(=O)N[C@@H](C)c3ccc(-c5scnc5C)cc3)C(C)C)C4)cc2)cc(C(=O)NCc2c(C)cc(C)[nH]c2=O)c1C)C1CCOCC1 [Compound 102] | B (B = degradation between 30% and 60%) |
| CCN(c1cc(-c2ccc(OCCCCOc3ccc4c(c3)C(=O)N(C(C(=O)N3C[C@H](O)C[C@H]3C(=O)N[C@@H](C)c3ccc(-c5scnc5C)cc3)C(C)C)C4)cc2)cc(C(=O)NCc2c(C)cc(C)[nH]c2=O)c1C)C1CCOCC1 (stereo partly drawn) [Compound 103, (2S,4R)-1-(2-(6-(4-((3′-(((4,6-dimethyl-2-oxo-1,2-dihydropyridin-3-yl)methyl)carbamoyl)-5′-(ethyl(tetrahydro-2H-pyran-4-yl)amino)-4′-methyl-[1,1′-biphenyl]-4-yl)oxy)butoxy)-1-oxoisoindolin-2-yl)-3-methylbutanoyl)-4-hydroxy-N-((S)-1-(4-(4-methylthiazol-5-yl)phenyl)ethyl)pyrrolidine-2-carboxamide] | B (B = degradation between 30% and 60%) |
| CCN(c1cc(-c2ccc(OCCCCCOc3cc(C(C(=O)N4C[C@H](O)C[C@H]4C(=O)N[C@@H](C)c4ccc(-c5scnc5C)cc4)C(C)C)on3)cc2)cc(C(=O)NCc2c(C)cc(C)[nH]c2=O)c1C)C1CCOCC1 (stereo partly drawn) [Compound 104, (2S,4R)-1-(2-(3-(5-(3′-((4,6-dimethyl-2-oxo-1,2-dihydropyridin-3-yl)methylcarbamoyl)-5′-(ethyl(tetrahydro-2H-pyran-4-yl)amino)-4′-methylbiphenyl-4-yloxy)pentyloxy)isoxazol-5-yl)-3-methylbutanoyl)-4-hydroxy-N—((S)-1-(4-(4-methylthiazol-5-yl)phenyl)ethyl)pyrrolidine-2-carboxamide] | A (A = degradation more than 60%) |
| CCN(c1cc(-c2ccc(OCCCCCCOc3cc(C(C(=O)N4C[C@H](O)C[C@H]4C(=O)N[C@@H](C)c4ccc(-c5scnc5C)cc4)C(C)C)on3)cc2)cc(C(=O)NCc2c(C)cc(C)[nH]c2=O)c1C)C1CCOCC1 (stereo partly drawn) [Compound 106, (2S,4R)-1-(2-(3-((6-((3′-(((4,6-dimethyl-2-oxo-1,2-dihydropyridin-3-yl)methyl)carbamoyl)-5′-(ethyl(tetrahydro-2H-pyran-4-yl)amino)-4′-methyl-[1,1′-biphenyl]-4-yl)oxy)hexyl)oxy)isoxazol-5-yl)-3-methylbutanoyl)-4-hydroxy-N-((S)-1-(4-(4-methylthiazol-5-yl)phenyl)ethyl)pyrrolidine-2-carboxamide] | A (A = degradation more than 60%) |
| CCN(c1cc(-c2ccc(OCCCCOc3cc(C(C(=O)N4C[C@H](O)C[C@H]4C(=O)N[C@@H](C)c4ccc(-c5scnc5C)cc4)C(C)C)on3)cc2)cc(C(=O)NCc2c(C)cc(C)[nH]c2=O)c1C)C1CCOCC1 (stereo partly drawn) [Compound 107, (2S,4R)-1-(2-(3-(4-(3′-((4,6-dimethyl-2-oxo-1,2-dihydropyridin-3-yl)methylcarbamoyl)-5′-(ethyl(tetrahydro-2H-pyran-4-yl)amino)-4′-methylbiphenyl-4-yloxy)butoxy)isoxazol-5-yl)-3-methylbutanoyl)-4-hydroxy-N—((S)-1-(4-(4-methylthiazol-5-yl)phenyl)ethyl)pyrrolidine-2-carboxamide] | A (A = degradation more than 60%) |
